Experimental data from PMC6792352, “Limited Chemical Structural Diversity Found to Modulate Thyroid Hormone Receptor in the Tox21 Chemical Library” (Environmental Health Perspectives, 2019).
Structures can show the parent of a compound that is named as a salt.

Assay: in vitro
Settings: rat, gh3-tre-luc cells, AC50 (uM) modified / 1000

SMILES | CC50 at 24 h
NNC(=S)NN [Thiocarbazide] | > 90 µM
CCCCCCCCCC=O [Decanal] | > 90 µM
CC(C)Nc1ccccc1 [N-Isopropylaniline] | > 90 µM
CC(C)(C)c1ccc(N)cc1 [4-tert-Butylaniline] | > 90 µM
N=C(N)NC(=O)Cc1c(Cl)cccc1Cl [Guanfacine hydrochloride] | 31.7 µM
CCCCCCCCCCCC[N+](C)(C)C [Dodecyltrimethylammonium chloride] | 15.8 µM
CC(C)OCCO [2-Isopropoxyethanol] | > 90 µM
C=CC(=O)OCCCCCCCCCC [Decyl prop-2-enoate] | > 90 µM
CC1CCc2cc(F)cc3c(=O)c(C(=O)O)cn1c23 (stereo not shown) [Flumequine] | > 50 µM
COc1cc2c(N3CCN(C(=O)Nc4ccc(OC(C)C)cc4)CC3)ncnc2cc1OCCCN1CCCCC1 [Tandutinib] | 11.4 µM
O=C(CO)[C@@H](O)[C@H](O)[C@@H](O)CO [L-(-)-Sorbose] | > 50 µM
C1C[C@@H]2[C@H]3CC[C@H](C3)[C@@H]2C1 [Octahydro-exo-4,7-methano-1H-indene] | > 90 µM
CN(C)CCc1c[nH]c2ccc(Cn3cncn3)cc12 [Rizatriptan] | > 50 µM
Cc1ccc(O)cc1 [p-Cresol] | > 100 µM
Cc1onc(-c2ccccc2)c1-c1ccc(S(N)(=O)=O)cc1 [Valdecoxib] | > 50 µM
Nc1ccc(C(=O)NCC(=O)O)cc1 [Aminohippuric acid] | > 20 µM
C#CC(O)CCCCC (stereo not shown) [1-Octyn-3-ol] | > 90 µM
CCCCNc1ccc(C(=O)OCCOCCOCCOCCOCCOCCOCCOCCOCCOC)cc1 [Benzonatate] | > 20 µM
C=CCOC(=O)/C=C\C(=O)OCC=C [Diprop-2-en-1-yl (2Z)-but-2-enedioate] | > 90 µM
C=C(C)C1CC=C(C)C(OC(C)=O)C1 (stereo not shown) [Carvyl acetate] | > 90 µM
CCC#N [Propionitrile] | > 100 µM
CCCc1cc(=O)[nH]c(=S)[nH]1 [6-Propyl-2-thiouracil] | > 90 µM
CCCCCCC [Heptane] | > 100 µM
CCCCCCOC(=O)CCCCCCCC(=O)OCCCCCC [Dihexyl nonanedioate] | > 90 µM
CO[Si](CCCNCCN)(OC)OC [N-[3-(Trimethoxysilyl)propyl]ethane-1,2-diamine] | > 90 µM

SMILES | CC50 at 24 h
C#C[C@]1(O)CC[C@H]2[C@@H]3CCc4cc(OC5CCCC5)ccc4[C@H]3CC[C@@]21C [Quinestrol] | 16 µM
O=C(OC(=O)c1ccccc1)c1ccccc1 [Benzoic anhydride] | > 90 µM
CC(C)C[C@@H](N)C(=O)O [D-Leucine] | > 50 µM
OC[C@H]1O[C@@H](O[C@H]2[C@H](O)[C@@H](O)C(O)O[C@@H]2CO)[C@H](O)[C@@H](O)[C@@H]1O (stereo partly shown) [Cellobiose] | > 50 µM
CC(CCCCN)C(C)(C)N (stereo not shown) [Trimethylhexane-1,6-diamine] | > 200 µM
CO[Si](OC)(OC)OC [Tetramethyl orthosilicate] | 81.5 µM
C=C(C)CN(CC)c1c([N+](=O)[O-])cc(C(F)(F)F)cc1[N+](=O)[O-] [Ethalfluralin] | > 90 µM
CCCCCC[C@@H](O)C/C=C\CCCCCCCC(=O)O [(9Z,12R)-12-Hydroxyoctadec-9-enoic acid] | 80.8 µM
CC(=O)c1cccc([N+](=O)[O-])c1 [3-Nitroacetophenone] | > 90 µM
O=C1c2ccccc2C(=O)c2cc(S(=O)(=O)O)ccc21 [Sodium 9,10-dioxo-9,10-dihydroanthracene-2-sulfonate] | > 90 µM
c1cc2c(c(NC3=NCCN3)c1)CCCC2 [Tramazoline tosylate] | > 50 µM
CCOC(=O)c1cccnc1 [Ethyl nicotinate] | > 50 µM
CCN(CC)CCOc1ccc(-c2nc3cc(Cl)ccc3s2)cc1 [Halethazole hydrochloride] | 8.14 µM
CCOP(=S)(OCC)Oc1ccc([N+](=O)[O-])cc1 [Parathion] | > 90 µM
COc1c(N2CCNC(C)C2)c(F)cc2c(=O)c(C(=O)O)cn(C3CC3)c12 (stereo not shown) [Gatifloxacin] | > 50 µM
CCCCCCCCCCCC(=O)OCC(O)CO (stereo not shown) [1-Monolaurin] | > 90 µM
O=C(Nc1ccc2c(O)c(N=Nc3ccc(N=Nc4ccc(S(=O)(=O)O)cc4)cc3)c(S(=O)(=O)O)cc2c1)c1ccccc1 [C.I. Direct Red 81 disodium salt] | 35.6 µM
Cc1cc(C)c(NC(=O)C[C@H](CC(=O)O)c2cccc3ccccc23)c(C(=O)N2CCC3(CCCC3)CC2)c1 [Itriglumide sodium] | 26.9 µM
CCCCN(CCCC)CC(O)c1cc(Cl)cc2c1-c1ccc(Cl)cc1/C2=C/c1ccc(Cl)cc1 (stereo not shown) [Lumefantrine] | 38.5 µM
N#CNC(=N)N [Cyanoguanidine] | > 90 µM
NC(=O)N(O)[C@@H]1C=C[C@H](Oc2cccc(Oc3ccc(F)cc3)c2)C1 [CJ-013790] | > 90 µM
O=C(CCBr)N1CCN(C(=O)CCBr)CC1 [Pipobroman] | > 50 µM
CC(C)=CCC1C(=O)N(c2ccccc2)N(c2ccccc2)C1=O [Feprazone] | 48.7 µM
CN(C)CCC[C@@]1(c2ccc(F)cc2)OCc2cc(C#N)ccc21 [Escitalopram oxalate] | > 50 µM
COc1ccc(Nc2ccc(OC)cc2)cc1 [4,4'-Dimethoxydiphenylamine] | 50.3 µM

SMILES | CC50 at 24 h
CCCCNC(C)(C)[PH](=O)O [Butafosfan] | > 50 µM
CC/C(=C\C(=N/O)C(N)=O)C(C)[N+](=O)[O-] (stereo not shown) [FR900409] | > 90 µM
NC(N)=NN=C(/C=C/c1ccc([N+](=O)[O-])o1)/C=C/c1ccc([N+](=O)[O-])o1 [Nitrovin] | 1.82 µM
CCC(CC)C(=O)O [2-Ethylbutyric acid] | > 90 µM
C/C(=C(\CCO)SS/C(CCO)=C(/C)N(C=O)Cc1cnc(C)nc1N)N(C=O)Cc1cnc(C)nc1N [Thiamine disulfide] | > 50 µM
O=C1CCc2ccc(OCCCCN3CCN(c4cccc(Cl)c4Cl)CC3)cc2N1 [Aripiprazole] | 11.8 µM
CC1(C(=O)Nc2ccc(O)c(Cl)c2Cl)CCCCC1 [Fenhexamid] | 76.7 µM
CCCCCCCCN[C@@H](C)[C@H](O)c1ccc(SC(C)C)cc1 (racemic) [Suloctdil] | 4.84 µM
CCCC(=O)Nc1ccc(OCC(O)CNC(C)C)c(C(C)=O)c1 (stereo not shown) [Acebutolol hydrochloride] | > 20 µM
O=C(O)c1ccccc1Cl [2-Chlorobenzoic acid] | > 90 µM
C/C=C(\C)C(=O)OCC/C=C\CC [(3Z)-Hex-3-en-1-yl (2E)-2-methylbut-2-enoate] | > 90 µM
OCCN1CCNCC1 [1-Piperazineethanol] | > 90 µM
ClCC1CO1 (stereo not shown) [Epichlorohydrin] | > 90 µM
CC(C)(O)C(Cl)(Cl)Cl [1,1,1-Trichloro-2-methyl-2-propanol] | > 50 µM
COc1ccccc1N1CCN(CCCCNC(=O)c2ccc(-c3ccc(C(C)=O)cc3)cc2)CC1 [GR 103691] | > 50 µM
O=C1OC(=O)C2CCCCC12 (stereo not shown) [Hexahydrophthalic anhydride] | > 90 µM
O=C(OCC(COC(=O)c1cccnc1)(COC(=O)c1cccnc1)COC(=O)c1cccnc1)c1cccnc1 [Niceritrol] | > 50 µM
Cc1c(-c2cccnc2)c2ccccc2n1CCCCC(=O)O [UK-156819] | > 90 µM
COc1ccc(CCNCC(O)COc2cccc(C)c2)cc1OC (stereo not shown) [Bevantolol hydrochloride] | 20.6 µM
CCOc1cccc(-n2cc(C(=O)N3CCN(c4cc(C(=O)O)c5ccccc5c4)CC3)nc2-c2ccc(C)cc2)c1 [PharmaGSID_47337] | 77.9 µM
Cc1nc2ccccc2s1 [2-Methylbenzothiazole] | > 90 µM
Nc1ccc(N=Nc2ccccc2)cc1 [4-Aminoazobenzene] | > 90 µM
Cc1scc2c1N(C(=O)CN1CCN(C)CC1)c1ccccc1NC2=O [Telenzepine] | > 50 µM
CC(C)=CCOc1c2occc2cc2ccc(=O)oc12 [Imperatorin] | > 50 µM

Same assay, conditions: rat, gh3-tre-luc cells, AC50 (uM) modified / 1000, Tox21_110001=Tox21_111072; viability, 1 nM T3 present, 24 h

SMILES | CC50 at 24 h
CCCCCl [1-Chlorobutane] | > 50 µM

Same assay, conditions: rat, gh3-tre-luc cells, AC50 (uM) modified / 1000, Tox21_110001=Tox21_111618; viability, 1 nM T3 present, 24 h

SMILES | CC50 at 24 h
NNc1ccccc1 [Phenylhydrazine hydrochloride] | > 50 µM

Same assay, conditions: rat, gh3-tre-luc cells, AC50 (uM) modified / 1000, Tox21_110001=Tox21_112620; viability, 1 nM T3 present, 24 h

SMILES | CC50 at 24 h
CCC(=O)O[C@]1(c2ccccc2)CCN(C)C[C@H]1C [Betaprodine] | > 50 µM

Same assay, conditions: rat, gh3-tre-luc cells, AC50 (uM) modified / 1000, Tox21_110001=Tox21_200724; viability, 1 nM T3 present, 24 h

SMILES | CC50 at 24 h
ClC(Cl)(Cl)C(Cl)(Cl)Cl [Hexachloroethane] | > 90 µM

Same assay, conditions: rat, gh3-tre-luc cells, AC50 (uM) modified / 1000, Tox21_110001=Tox21_200865; viability, 1 nM T3 present, 24 h

SMILES | CC50 at 24 h
CCCCCl [1-Chlorobutane] | > 90 µM

Same assay, conditions: rat, gh3-tre-luc cells, AC50 (uM) modified / 1000, Tox21_110001=Tox21_201664; viability, 1 nM T3 present, 24 h

SMILES | CC50 at 24 h
CC(C)OC(=O)Nc1ccccc1 [Propham] | > 90 µM

Same assay, conditions: rat, gh3-tre-luc cells, AC50 (uM) modified / 1000, Tox21_110001=Tox21_202198; viability, 1 nM T3 present, 24 h

SMILES | CC50 at 24 h
NNc1ccccc1 [Phenylhydrazine hydrochloride] | 40.6 µM

Same assay, conditions: rat, gh3-tre-luc cells, AC50 (uM) modified / 1000, Tox21_110001=Tox21_202716; viability, 1 nM T3 present, 24 h

SMILES | CC50 at 24 h
BrCCCBr [1,3-Dibromopropane] | > 100 µM

Same assay, conditions: rat, gh3-tre-luc cells, AC50 (uM) modified / 1000, Tox21_110001=Tox21_202862; viability, 1 nM T3 present, 24 h

SMILES | CC50 at 24 h
CCCCCCI [1-Iodohexane] | > 90 µM

Same assay, conditions: rat, gh3-tre-luc cells, AC50 (uM) modified / 1000, Tox21_110001=Tox21_202971; viability, 1 nM T3 present, 24 h

SMILES | CC50 at 24 h
Nc1ccc2c(c1)Cc1ccccc1-2 [2-Aminofluorene] | > 90 µM

Same assay, conditions: rat, gh3-tre-luc cells, AC50 (uM) modified / 1000, Tox21_110001=Tox21_302936; viability, 1 nM T3 present, 24 h

SMILES | CC50 at 24 h
NNc1ccccc1 [Phenylhydrazine hydrochloride] | 66.7 µM
